{"source": "patent US8609847B2", "about": "“Dihydroquinolinone derivatives” (Taisho Pharmaceutical Co., Ltd, priority 2009, dated 2013)", "molecular_target": "T1, human H3 receptor (Homo sapiens, UniProt Q9Y5N1)", "T1 construct": "purchased Perkin Elmer ES-392-M400UA; host or cells: CHO-K1 cells (recombinant expression), membrane preparation", "T1 sequence (Q9Y5N1 whole entry)": "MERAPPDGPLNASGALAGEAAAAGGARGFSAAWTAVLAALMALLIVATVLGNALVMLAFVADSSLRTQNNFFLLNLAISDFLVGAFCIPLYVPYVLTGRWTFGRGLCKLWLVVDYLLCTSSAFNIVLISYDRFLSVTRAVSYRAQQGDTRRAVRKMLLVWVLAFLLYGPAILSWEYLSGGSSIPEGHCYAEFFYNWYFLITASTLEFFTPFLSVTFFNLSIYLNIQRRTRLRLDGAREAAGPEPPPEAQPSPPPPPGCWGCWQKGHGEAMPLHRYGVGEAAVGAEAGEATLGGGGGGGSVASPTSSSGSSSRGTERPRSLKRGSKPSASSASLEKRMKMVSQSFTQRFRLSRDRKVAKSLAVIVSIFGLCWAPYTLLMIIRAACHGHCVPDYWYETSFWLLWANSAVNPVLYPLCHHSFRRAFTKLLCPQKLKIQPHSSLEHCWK", "experiment": "H3 Receptor Binding Test", "conditions": "50% inhibition of R(−)-α-methyl[3H]histamine (1 nM) binding; membrane preparation of human H3 receptor-expressing CHO-K1 cells", "method": "A membrane preparation of human H3 receptor-expressing CHO-K1 cells (Perkin Elmer, ES-392-M400UA, 15 μg protein/200 μl), R(−)-α-methyl[^3H]histamine (Amersham, TRK-1017, specific activity: 1.74 TBq/mmol, 1 nM) and a test drug were reacted at room temperature for 1 hour. After completion of the reaction, the reaction mixture was subjected to suction filtration through a 0.3% polyethyleneimine-treated glass filter (GF/C). The glass filter was washed five times with 50 mM Tris-HCl washing solution (pH 7.4) containing 5 mM EDTA. After washing, the glass filter was dried and a scintillator was added thereto, followed by measurement of radioactivity on the filter using a liquid scintillation counter.\nBinding of R(−)-α-methyl[^3H]histamine in the presence of 10 μM R(−)-α-methylhistamine was defined as non-specific binding, and the difference between total binding and non-specific binding of R(−)-α-methyl[^3H]histamine was defined as specific binding of R(−)-α-methyl[^3H]histamine. A fixed concentration (1 nM) of R(−)-α-methyl[^3H]histamine was reacted under the above conditions with each test drug at various concentrations to obtain an inhibition curve. The inhibition curve was used to determine the concentration (IC50) of each test drug required for 50% inhibition of R(−)-α-methyl[^3H]histamine binding.", "data": [{"molecule": "O=C1CCc2cc(OC3CCN(CC4CC4)CC3)ccc2N1c1ccc(F)cc1", "note": "[Compound No. 76, 6-{[1-(cyclopropylmethyl)piperidin-4-yl]oxy}-1-(4-fluorophenyl)-3,4-dihydroquinolin-2(1H)-one]", "values": [{"measurement": "IC50", "result": 9.8, "unit": "nM"}]}, {"molecule": "Cc1ccc(N2C(=O)CCc3cc(OCCCN4CCC[C@H]4C)ccc32)cc1", "note": "[Compound No. 3, 1-(4-methylphenyl)-6-{3-[(2R)-2-methylpyrrolidin-1-yl]propoxy}-3,4-dihydroquinolin-2(1H)-one]", "values": [{"measurement": "IC50", "result": 1, "unit": "nM"}]}, {"molecule": "C[C@@H]1CCCN1CCCOc1ccc2c(c1)CCC(=O)N2c1ccc(C#N)cc1", "note": "[Compound No. 1, 4-[6-{3-[(2R)-2-methylpyrrolidin-1-yl]propoxy}-2-oxo-3,4-dihydroquinolin-1(2H)-yl]benzonitrile]", "values": [{"measurement": "IC50", "result": 4.4, "unit": "nM"}]}, {"molecule": "C[C@@H]1CCCN1CCCOc1ccc2c(c1)CCC(=O)N2c1ccc(Cl)cc1F", "note": "[Compound No. 30, 1-(4-chloro-2-fluorophenyl)-6-{3-[(2R)-2-methylpyrrolidin-1-yl]propoxy}-3,4-dihydroquinolin-2(1H)-one]", "values": [{"measurement": "IC50", "result": 1.1, "unit": "nM"}]}, {"molecule": "C[C@@H]1CCCN1CCCOc1ccc2c(c1)CCC(=O)N2c1ccc(C#N)cn1", "note": "[Compound No. 46, 6-[6-{3-[(2R)-2-methylpyrrolidin-1-yl]propoxy}-2-oxo-3,4-dihydroquinolin-1(2H)-yl]pyridine-3-carbonitrile]", "values": [{"measurement": "IC50", "result": 22, "unit": "nM"}]}, {"molecule": "COc1ccccc1N1C(=O)CCc2cc(OCCCN3CCC[C@H]3C)ccc21", "note": "[Compound No. 23, 1-(2-methoxyphenyl)-6-{3-[(2R)-2-methylpyrrolidin-1-yl]propoxy}-3,4-dihydroquinolin-2(1H)-one]", "values": [{"measurement": "IC50", "result": 1.2, "unit": "nM"}]}, {"molecule": "C[C@@H]1CCCN1CCCOc1ccc2c(c1)CCC(=O)N2c1cn(C(=O)OC(C)(C)C)c2ccccc12", "note": "[Compound No. 42, tert-butyl 3-[6-{3-[(2R)-2-methylpyrrolidin-1-yl]propoxy}-2-oxo-3,4-dihydroquinolin-1(2H)-yl]-1H-indole-1-carboxylate]", "values": [{"measurement": "IC50", "result": 34, "unit": "nM"}]}, {"molecule": "C[C@@H]1CCCN1CCCOc1ccc2c(c1)CCC(=O)N2c1ccc(N2CCCC2=O)cc1", "note": "[Compound No. 18, 6-{3-[(2R)-2-methylpyrrolidin-1-yl]propoxy}-1-[4-(2-oxopyrrolidin-1-yl)phenyl]-3,4-dihydroquinolin-2(1H)-one]", "values": [{"measurement": "IC50", "result": 20, "unit": "nM"}]}, {"molecule": "Cc1ccc(N2C(=O)CCc3cc(OCCCN4CCC[C@H]4C)ccc32)cn1", "note": "[Compound No. 47, 1-(6-methylpyridin-3-yl)-6-{3-[(2R)-2-methylpyrrolidin-1-yl]propoxy}-3,4-dihydroquinolin-2(1H)-one]", "values": [{"measurement": "IC50", "result": 2.9, "unit": "nM"}]}, {"molecule": "C[C@@H]1CCCN1CCCOc1ccc2c(c1)CCC(=O)N2c1cccnc1", "note": "[Compound No. 35, 6-{3-[(2R)-2-methylpyrrolidin-1-yl]propoxy}-1-(pyridin-3-yl)-3,4-dihydroquinolin-2(1H)-one]", "values": [{"measurement": "IC50", "result": 2.2, "unit": "nM"}]}, {"molecule": "C[C@@H]1CCCN1CCCOc1ccc2c(c1)CCC(=O)N2c1cncnc1", "note": "[Compound No. 36, 6-{3-[(2R)-2-methylpyrrolidin-1-yl]propoxy}-1-(pyrimidin-5-yl)-3,4-dihydroquinolin-2(1H)-one]", "values": [{"measurement": "IC50", "result": 5.8, "unit": "nM"}]}, {"molecule": "C[C@@H]1CCCN1CCCOc1ccc2c(c1)CCC(=O)N2c1cccc(F)c1", "note": "[Compound No. 24, 1-(3-fluorophenyl)-6-{3-[(2R)-2-methylpyrrolidin-1-yl]propoxy}-3,4-dihydroquinolin-2(1H)-one]", "values": [{"measurement": "IC50", "result": 0.92, "unit": "nM"}]}, {"molecule": "O=C1CCc2cc(OCCCN3CCCC3)ccc2N1c1ccc(F)c(F)c1", "note": "[Compound No. 81, 1-(3,4-difluorophenyl)-6-[3-(pyrrolidin-1-yl)propoxy]-3,4-dihydroquinolin-2(1H)-one]", "values": [{"measurement": "IC50", "result": 18, "unit": "nM"}]}, {"molecule": "O=C1CCc2cc(OC3CCN(C4CCC4)CC3)ccc2N1c1cc(F)cc(F)c1", "note": "[Compound No. 68, 6-[(1-cyclobutylpiperidin-4-yl)oxy]-1-(3,5-difluorophenyl)-3,4-dihydroquinolin-2(1H)-one]", "values": [{"measurement": "IC50", "result": 0.72, "unit": "nM"}]}, {"molecule": "O=C1CCc2cc(OC3CCN(C4CC4)CC3)ccc2N1c1ccc(F)cc1", "note": "[Compound No. 77, 6-[(1-cyclopropylpiperidin-4-yl)oxy]-1-(4-fluorophenyl)-3,4-dihydroquinolin-2(1H)-one]", "values": [{"measurement": "IC50", "result": 2.1, "unit": "nM"}]}, {"molecule": "C[C@@H]1CCCN1CCCOc1ccc2c(c1)CCC(=O)N2c1cncc2cccnc12", "note": "[Compound No. 40, 6-{3-[(2R)-2-methylpyrrolidin-1-yl]propoxy}-1-(1,6-naphthylizin-8-yl)-3,4-dihydroquinolin-2(1H)-one]", "values": [{"measurement": "IC50", "result": 20, "unit": "nM"}]}, {"molecule": "C[C@@H]1CCCN1CCCOc1cc(Cl)c2c(c1)CCC(=O)N2c1ccc(F)cc1", "note": "[Compound No. 85, 8-chloro-1-(4-fluorophenyl)-6-{3-[(2R)-2-methylpyrrolidin-1-yl]propoxy}-3,4-dihydroquinolin-2(1H)-one]", "values": [{"measurement": "IC50", "result": 11, "unit": "nM"}]}, {"molecule": "C[C@@H]1CCCN1CCCOc1ccc2c(c1)CCC(=O)N2c1cnc2ccccc2c1", "note": "[Compound No. 37, 6-{3-[(2R)-2-methylpyrrolidin-1-yl]propoxy}-3,4-dihydro-2H-1,3′-biquinolin-2-one]", "values": [{"measurement": "IC50", "result": 3.1, "unit": "nM"}]}, {"molecule": "C[C@@H]1CCCN1CCCOc1ccc2c(c1)CCC(=O)N2c1ccc2c(c1)OCCO2", "note": "[Compound No. 43, 1-(2,3-dihydro-1,4-benzodioxin-6-yl)-6-{3-[(2R)-2-methylpyrrolidin-1-yl]propoxy}-3,4-dihydroquinolin-2(1H)-one]", "values": [{"measurement": "IC50", "result": 2.2, "unit": "nM"}]}, {"molecule": "O=C1CCc2cc(OC3CCN(C4CCC4)CC3)ccc2N1c1ccc(Cl)cc1", "note": "[Compound No. 70, 1-(4-chlorophenyl)-6-[(1-cyclobutylpiperidin-4-yl)oxy]-3,4-dihydroquinolin-2(1H)-one]", "values": [{"measurement": "IC50", "result": 0.75, "unit": "nM"}]}, {"molecule": "COCc1ccc(N2C(=O)CCc3cc(OCCCN4CCC[C@H]4C)ccc32)cc1", "note": "[Compound No. 11, 1-[4-(methoxymethyl)phenyl]-6-{3-[(2R)-2-methylpyrrolidin-1-yl]propoxy}-3,4-dihydroquinolin-2(1H)-one]", "values": [{"measurement": "IC50", "result": 2.9, "unit": "nM"}]}, {"molecule": "C[C@@H]1CCCN1CCCOc1ccc2c(c1)CCC(=O)N2c1c[nH]c2ccccc12", "note": "[Compound No. 57, 1-(1H-indol-3-yl)-6-{3-[(2R)-2-methylpyrrolidin-1-yl]propoxy}-3,4-dihydroquinolin-2(1H)-one]", "values": [{"measurement": "IC50", "result": 0.76, "unit": "nM"}]}, {"molecule": "C[C@@H]1CCCN1CCCOc1ccc2c(c1)CCC(=O)N2c1cnc2cccnc2c1", "note": "[Compound No. 39, 6-{3-[(2R)-2-methylpyrrolidin-1-yl]propoxy}-1-(1,5-naphthylizin-3-yl)-3,4-dihydroquinolin-2(1H)-one]", "values": [{"measurement": "IC50", "result": 4.4, "unit": "nM"}]}, {"molecule": "C[C@@H]1CCCN1CCCOc1ccc2c(c1)CCC(=O)N2c1ccc(Cl)cn1", "note": "[Compound No. 49, 1-(5-chloropyridin-2-yl)-6-{3-[(2R)-2-methylpyrrolidin-1-yl]propoxy}-3,4-dihydroquinolin-2(1H)-one]", "values": [{"measurement": "IC50", "result": 4, "unit": "nM"}]}, {"molecule": "C[C@@H]1CCCN1CCCOc1ccc2c(c1)CCC(=O)N2c1ccccc1", "note": "[Compound No. 2, 6-{3-[(2R)-2-methylpyrrolidin-1-yl]propoxy}-1-phenyl-3,4-dihydroquinolin-2(1H)-one]", "values": [{"measurement": "IC50", "result": 0.79, "unit": "nM"}]}, {"molecule": "CC(C)(C)N1CCC(Oc2ccc3c(c2)CCC(=O)N3c2cnc3ccccc3c2)CC1", "note": "[Compound No. 59, 6-[(1-tert-butylpiperidin-4-yl)oxy]-3,4-dihydro-2H-1,3′-biquinolin-2-one]", "values": [{"measurement": "IC50", "result": 8.5, "unit": "nM"}]}, {"molecule": "O=C1CCc2cc(OCCCN3CCCC3)ccc2N1c1ccc(F)cc1", "note": "[Compound No. 78, 1-(4-fluorophenyl)-6-[3-(pyrrolidin-1-yl)propoxy]-3,4-dihydroquinolin-2(1H)-one]", "values": [{"measurement": "IC50", "result": 13, "unit": "nM"}]}, {"molecule": "COc1ccc2ncc(N3C(=O)CCc4cc(OCCCN5CCC[C@H]5C)ccc43)cc2c1", "note": "[Compound No. 55, 6′-methoxy-6-{3-[(2R)-2-methylpyrrolidin-1-yl]propoxy}-3,4-dihydro-2H-1,3′-biquinolin-2-one]", "values": [{"measurement": "IC50", "result": 5.4, "unit": "nM"}]}, {"molecule": "CC(C)(C)N1CCC(Oc2ccc3c(c2)CCC(=O)N3c2cncc(F)c2)CC1", "note": "[Compound No. 64, 6-[(1-tert-butylpiperidin-4-yl)oxy]-1-(5-fluoropyridin-3-yl)-3,4-dihydroquinolin-2(1H)-one]", "values": [{"measurement": "IC50", "result": 5.3, "unit": "nM"}]}, {"molecule": "CC(C)N1CCC(Oc2ccc3c(c2)CCC(=O)N3c2ccc(F)cc2)CC1", "note": "[Compound No. 75, 1-(4-fluorophenyl)-6-{[1-(propan-2-yl)piperidin-4-yl]oxy}-3,4-dihydroquinolin-2(1H)-one]", "values": [{"measurement": "IC50", "result": 1.4, "unit": "nM"}]}, {"molecule": "C[C@@H]1CCCN1CCCOc1ccc2c(c1)CCC(=O)N2c1ccc2c(c1)OCC2", "note": "[Compound No. 45, 1-(2,3-dihydro-1-benzofuran-6-yl)-6-{3-[(2R)-2-methylpyrrolidin-1-yl]propoxy}-3,4-dihydroquinolin-2(1H)-one]", "values": [{"measurement": "IC50", "result": 2.3, "unit": "nM"}]}, {"molecule": "CC(C)(C)N1CCC(Oc2ccc3c(c2)CCC(=O)N3c2ccc(C#N)cc2)CC1", "note": "[Compound No. 62, 4-{6-[(1-tert-butylpiperidin-4-yl)oxy]-2-oxo-3,4-dihydroquinolin-1(2H)-yl}benzonitrile]", "values": [{"measurement": "IC50", "result": 4.9, "unit": "nM"}]}, {"molecule": "CCN(CC)CCCOc1ccc2c(c1)CCC(=O)N2c1ccc(F)cc1", "note": "[Compound No. 83, 6-[3-(diethylamino)propoxy]-1-(4-fluorophenyl)-3,4-dihydroquinolin-2(1H)-one]", "values": [{"measurement": "IC50", "result": 13, "unit": "nM"}]}, {"molecule": "COc1cc(F)cc(N2C(=O)CCc3cc(OCCCN4CCC[C@H]4C)ccc32)c1", "note": "[Compound No. 26, 1-(3-fluoro-5-methoxyphenyl)-6-{3-[(2R)-2-methylpyrrolidin-1-yl]propoxy}-3,4-dihydroquinolin-2(1H)-one]", "values": [{"measurement": "IC50", "result": 2.4, "unit": "nM"}]}]}
